Data taken from patent US12440496B2, “Natriuretic peptide receptor a agonists useful for the treatment of cardiometabolic diseases, kidney disease and diabetes” (Merck Sharp & Dohme LLC, priority 2019, dated 2025).
Counter-ions that a name gives are not always drawn.

Molecular target: T1, hNPRA (Homo sapiens, UniProt P16066)
T1 construct: expressed in transfected cells
T1 sequence (P16066 33-1061): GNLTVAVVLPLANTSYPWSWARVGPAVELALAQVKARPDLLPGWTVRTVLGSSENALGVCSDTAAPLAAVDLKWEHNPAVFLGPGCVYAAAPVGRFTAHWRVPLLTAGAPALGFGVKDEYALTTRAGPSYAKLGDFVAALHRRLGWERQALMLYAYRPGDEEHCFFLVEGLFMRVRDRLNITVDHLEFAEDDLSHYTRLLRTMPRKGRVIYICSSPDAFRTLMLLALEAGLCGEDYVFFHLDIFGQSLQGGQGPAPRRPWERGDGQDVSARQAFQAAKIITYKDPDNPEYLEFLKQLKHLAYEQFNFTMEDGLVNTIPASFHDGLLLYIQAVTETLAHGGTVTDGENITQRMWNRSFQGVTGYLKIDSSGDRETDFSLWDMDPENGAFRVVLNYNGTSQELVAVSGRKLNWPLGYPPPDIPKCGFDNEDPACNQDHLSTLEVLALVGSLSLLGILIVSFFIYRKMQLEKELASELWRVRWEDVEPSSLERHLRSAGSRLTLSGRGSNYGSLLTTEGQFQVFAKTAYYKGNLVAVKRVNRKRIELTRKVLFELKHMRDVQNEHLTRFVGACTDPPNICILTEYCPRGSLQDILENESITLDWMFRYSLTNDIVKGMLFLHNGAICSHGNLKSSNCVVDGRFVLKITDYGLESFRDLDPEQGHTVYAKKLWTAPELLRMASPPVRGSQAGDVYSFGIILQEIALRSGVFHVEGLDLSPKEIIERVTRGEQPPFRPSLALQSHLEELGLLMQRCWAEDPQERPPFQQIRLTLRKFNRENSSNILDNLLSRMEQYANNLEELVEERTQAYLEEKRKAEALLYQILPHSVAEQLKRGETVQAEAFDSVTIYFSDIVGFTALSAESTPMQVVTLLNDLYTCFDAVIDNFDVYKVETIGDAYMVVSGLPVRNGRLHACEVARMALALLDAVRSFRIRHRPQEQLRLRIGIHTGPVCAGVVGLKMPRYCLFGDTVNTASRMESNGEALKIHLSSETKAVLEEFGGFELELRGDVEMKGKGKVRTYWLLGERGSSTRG
Experiment: NPRA Functional Cell Assay (cGMP HTRF, NPRA HEK JumpIn stable cells)
Format: cell-based
Settings: cGMP production, 1 hour at 37° C., 10-point dose response
Outline: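 cGMP HTRF read-out after 1 hour compound treatment at 37° C. of human NPRA-expressing HEK JumpIn cells, 1500 cells/well, in buffer with phosphodiesterase inhibitors IBMX and RO20 (100 uM each). Signal converted to [cGMP] by calibration curve; EC50s fitted by 4-parameter logistic; 50 nM h-ANP as positive response.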

SMILES	EC50
CC(C)(C)[C@H]1CCc2nc3sc(C(=O)N[C@H](CCN4CC(O)C4)c4ccccc4)cc3cc2C1 [Example 256, (6S)-6-tert-butyl-N-[(1R)-3-(3-hydroxyazetidin-1-yl)-1-phenylpropyl]-5,6,7,8-tetrahydrothieno[2,3-b]quinoline-2-carboxamide]	3100 nM
Cn1nnnc1-c1ccc([C@@H](CCN2CCC(O)CC2)NC(=O)c2nc3cc4c(nc3s2)CC[C@H](C(C)(C)C)C4)cc1 (racemic) [Example 177, rac-(7S)-7-tert-butyl-N-[rac-(1R)-3-(4-hydroxypiperidin-1-ium-1-yl)-1-[4-(1-methyltetrazol-5-yl)phenyl]propyl]-5,6,7,8-tetrahydrothiazolo[5,4-b]quinoline-2-carboxamide; 2,2,2-trifluoroacetate]	1150 nM
CC(C)(C)[C@H]1CCc2nc3sc(C(=O)N[C@H](CCN4CCC(c5ccccn5)CC4)c4cccc(NS(C)(=O)=O)c4)cc3cc2C1 (racemic) [Example 23, ammonium;methylsulfonyl-[3-[rac-(1R)-3-[4-(2-pyridyl)-1-piperidyl]-1-[[rac-(6S)-6-tert-butyl-5,6,7,8-tetrahydrothieno[2,3-b]quinoline-2carbonyl]amino]propyl]phenyl]azanide]	1790 nM
CC(C)(C)[C@H]1CCc2nc3sc(C(=O)N[C@H](CCN4CCC(O)CC4)c4ccc(N5CCOC5=O)cc4)nc3cc2C1 (racemic) [Example 85]	1020 nM
CC(C)(C)[C@H]1CCc2nc3sc(C(=O)N[C@H](CCN4CCC(F)CC4)c4ccccc4)cc3cc2C1 [Example 252, (6S)-6-tert-butyl-N-[(1R)-3-(4-fluoropiperidin-1-yl)-1-phenylpropyl]-5,6,7,8-tetrahydrothieno[2,3-b]quinoline-2-carboxamide]	6300 nM
CC(C)(C)[C@H]1CCc2nc3sc(C(=O)N[C@H](CCN4CCC(O)CC4)c4cccc(NC(=O)C5CCNC5)c4)nc3cc2C1 (mixture of isomers) [Example 118, rac-(7S)-7-tert-butyl-N-[rac-(1R)-3-(4-hydroxy-1-piperidyl)-1-[3-(pyrrolidin-1-ium-3-carbonylamino)phenyl]propyl]-5,6,7,8-tetrahydrothiazolo[5,4-b] quinoline-2-carboxamide; 2,2,2 trifluoroacetate]	985 nM
O=C(N[C@H](CCN1CCC(O)CC1)c1ccc(-c2cn[nH]c2)cc1)c1nc2cc3c(nc2s1)CC[C@H](C1(C(F)(F)F)CC1)C3 [Example 268, (S)-N-((R)-1-(4-(1H-pyrazol-4-yl)phenyl)-3-(4-hydroxypiperidin-1-yl)propyl)-7-(1-(trifluoromethyl)cyclopropyl)-5,6,7,8-tetrahydrothiazolo[5,4-b]quinoline-2-carboxamide]	2030 nM
CC(C)(C)C1CCc2nc3sc(C(=O)NC(CCN4CCC(O)CC4)c4ccc(N5CCC(O)C5=O)nc4)nc3cc2C1 (racemic) [Example 188, rac-(7S)-7-tert-butyl-N-[rac-(1R)-1-[6-(3-hdyroxy-2-oxo-pyrrolidin-1-yl)-3-pyridyl]-3-(4-hydroxy-1-piperidyl)propyl]-5,6,7,8-tetrahydrothiazolo[5,4-b]quinoline-2-carboxamide]	938 nM
CC(C)(C)[C@H]1CCc2nc3sc(C(=O)N[C@H](CCN4CCC(O)CC4)c4cccc(C(=O)N5CC(N6CCOCC6)C5)c4)nc3cc2C1 (racemic) [Example 157, rac-(7S)-7-tert-butyl-N-[rac-(1R)-3-(4-hydroxy-1-piperidyl)-1-[3-(3-morpholinoazetidine-1-carbonyl)phenyl]propyl]-5,6,7,8-tetrahydrothiazolo[5,4-b]quinoline-2-carboxamide]	876 nM

More lines, now with the values ahead:

EC50	SMILES
138 nM	CC(C)(C)[C@H]1CCc2nc3sc(C(=O)N[C@H](CCN4CCC(O)CC4)c4cccc(C(=O)NC5CNC5)c4)nc3cc2C1 (racemic) [Example 136, rac-(7S)-7-tert-butyl-N-[rac-(1R)-1-[3-(azetidin-3-ylcarbamoyl)phenyl]-3-(4-hydroxy-1-piperidyl)propyl]-5,6,7,8-tetrahydrothiazolo[5,4-b]quinoline-2-carboxamide]
656 nM	CC(C)(C)[C@H]1CCc2nc3sc(C(=O)N[C@H](CCN4CCC(O)C4)c4ccc(-c5ccc(=O)[nH]c5)cc4)cc3cc2C1 (mixture of isomers) [Example 41, rac-(6S)-6-tert-butyl-N-[rac-(1R)-3-(3-hydroxypyrrolidin-1-ium-1-yl)-1-[4-(6-oxo-1H-pyridin-3-yl)phenyl]propyl]-5,6,7,8-tetrahydrothieno[2,3-b]quinoline-2-carboxamide;formate]
665 nM	CN(C)CC[C@@H](NC(=O)c1nc2cc3c(nc2s1)CC[C@H](C(C)(C)C)C3)c1ccc(-c2ccc(=O)[nH]c2)cc1 (racemic) [Example 76, rac-(7S)-7-tert-butyl-N-[rac-(1R)-3-(dimethylamino)-1-[4-(6-oxo-1H-pyridin-3-yl)phenyl]propyl]-5,6,7,8-tetrahydrothiazolo[5,4-b]quinoline-2-carboxamide]
679 nM	CC(C)(C)[C@H]1CCc2nc3sc(C(=O)N[C@H](CCN4CC(O)C4)c4ccc(-c5ccc(=O)[nH]c5)cc4)cc3cc2C1 (racemic) [Example 48, rac-(6S)-6-tert-butyl-N-[rac-(1R)-3-(3-hydroxyazetidin-1-ium-1-yl)-1-[4-(6-oxo-1H-pyridin-3-yl)phenyl]propyl]-5,6,7,8-tetrahydrothieno[2,3-b]quinoline-2-carboxamide;formate]
196 nM	CC(C)(C)[C@H]1CCc2nc3sc(C(=O)N[C@H](CCN4CCC(O)CC4)c4ccc(-c5c[nH]c(=O)c(F)c5)cc4)nc3cc2C1 [Example 82, (7S)-7-tert-butyl-N-[(1R)-1-[4-(5-fluoro-6-hydroxy-3-pyridyl)phenyl]-3-(4-hydroxy-1-piperidyl)propyl]-5,6,7,8-tetrahydrothiazolo[5,4-b]quinoline-2-carboxamide]
198 nM	CC(C)(C)[C@H]1CCc2nc3sc(C(=O)N[C@H](CCN4CCC(O)CC4)c4ccc(-c5ccnnc5)cc4)nc3cc2C1 (racemic) [Example 162, rac-(7S)-7-tert-butyl-N-[rac-(1R)-3-(4-hydroxy-1-piperidyl)-1-(4-pyridazin-4-ylphenyl)propyl]-5,6,7,8-tetrahydrothiazolo[5,4-b]quinoline-2-carboxamide]
224 nM	CN1CCC(NC(=O)c2cccc([C@@H](CCN3CCC(C(=O)O)CC3)NC(=O)c3nc4cc5c(nc4s3)CC[C@H](C(C)(C)C)C5)c2)C1 (mixture of isomers) [Example 121, 1-[rac-(3R)-3-[3-[(1-methylpyrrolidin-3-yl)carbamoyl]phenyl]-3-[[rac-(7S)-7-tert-butyl-5,6,7,8-tetrahydrothiazolo [5,4-b]quinoline-2-carbonyl]amino]propyl]piperidine-4-carboxylic acid]
614 nM	CC(C)(C)[C@H]1CCc2nc3sc(C(=O)N[C@H](CCN4CCC(O)CC4)c4ccc(-c5c[nH]nc5C#N)cc4)nc3cc2C1 (racemic) [Example 166, rac-(7S)-7-tert-butyl-N-[rac-(1R)-1-[4-(3-cyano-1H-pyrazol-4-yl)phenyl]-3-(4-hydroxypiperidin-1-ium-1-yl)propyl]-5,6,7,8-tetrahydrothiazolo[5,4-b]quinoline-2-carboxamide; 2,2,2-trifluoroacetate]
863 nM	Cn1cnnc1-c1ccc([C@@H](CCN2CCC(O)CC2)NC(=O)c2nc3cc4c(nc3s2)CC[C@H](C(C)(C)C)C4)cc1 (racemic) [Example 170, rac-(7S)-7-tert-butyl-N-[rac-(1R)-3-(4-hydroxy-1-piperidyl)-1-[4-(4-methyl-1,2,4-triazol-3-yl)phenyl]propyl]-5,6,7,8-tetrahydrothiazolo[5,4-b]quinoline-2-carboxamide]
200 nM	CC(C)(C)[C@H]1CCc2nc3sc(C(=O)N[C@H](CCN4CCC(C(=O)O)CC4)c4ccc(-c5cnc(O)c(F)c5)cc4)nc3cc2C1 [Example 223, 1-((R)-3-((S)-7-(tert-butyl)-5,6,7,8-tetrahydrothiazolo[5,4-b]quinoline-2-carboxamido)-3-(4-(5-fluoro-6-hydroxypyridin-3-yl)phenyl)propyl)piperidine-4-carboxylic acid]
634 nM	CC(C)(C)[C@H]1CCc2nc3sc(C(=O)N[C@H](CCNC4CCOCC4)c4ccc(-c5ccc(=O)[nH]c5)cc4)nc3cc2C1 (racemic) [Example 75, rac-(7S)-7-tert-butyl-N-[rac-(1R)-1-[4-(6-oxo-1H-pyridin-3-yl)phenyl]-3-(tetrahydropyran-4-ylamino)propyl]-5,6,7,8-tetrahydrothiazolo[5,4-b]quinoline-2-carboxamide]
